For 15 compounds, TGI results are on record in PubChem BioAssay (NCI).

Common to all, as to assay: NCI anticancer screen, dose series, 48 h
Experiment [1] deals with SN12C renal.
Experiment [2] relates to DLD-1 colon.
The test system of experiment [3] is XF 498 CNS.
Experiment [4] has as its system CCRF-CEM leukemia.
The test system of experiment [5] is NCI-H522 lung.
The test system of experiment [6] is SF-295 CNS.
For experiment [7], the system named is K-562 leukemia.
Experiment [8] relates to SF-539 CNS.
For experiment [9], the system named is SNB-78 CNS.
The subject of experiment [10] is MCF7 breast.
Experiment [11] concerns MDA-MB-435.
For experiment [12], the system named is KM20L2 colon.
In experiment [13] the test system is HOP-18 NSCLC.

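Grown in 96-well plates, cells were treated for 48 hours with each compound at five concentrations. Insufficient inhibition: endpoint recorded as highest concentration tested. TGI marks complete inhibition of growth.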

As for `CC(=O)C1=CSC2[C@H](NC(=O)Cc3ccccc3)C(=O)N2C1C(=O)OC(c1ccccc1)c1ccccc1` (stereo partly specified), the TGI in experiment [1] was > 100 µM; in experiment [2] it was > 100 µM; in experiment [3] it was > 100 µM; in experiment [4], 68.2 µM; in experiment [5], > 100 µM; in [6], > 100 µM. Besides, the TGI in experiment [7], in experiment [8] and in [9] was > 100 µM throughout.
On to `O=C(N=S(NC(=O)c1ccccc1)C(Cl)(Cl)Cl)c1ccccc1` (stereo unspecified), for which the TGI in experiment [1] was 56.2 µM; in experiment [4], 12.1 µM; in [5], 51.1 µM; in experiment [6] it was > 59 µM; in experiment [7], > 84 µM; in experiment [10] it was 76.5 µM. Besides, the TGI in [8] was determined as 48.1 µM; in experiment [11] it was 47.4 µM.
For `CSc1nc(N)c(NC2OC(CO)C(O)C2O)c(=O)[nH]1` (stereo unspecified), the TGI in experiment [1], in experiment [4], in experiment [5], in experiment [6], in experiment [7] and in [10] was > 100 µM each time. In addition, the TGI in experiment [8] and in experiment [11] was > 100 µM each time.
`CCCCCCNC(=O)c1cnc(Cl)cn1`: the TGI is 26 µM in experiment [1]; > 100 µM in [4]; 0.552 µM in experiment [5]; 39.4 µM in experiment [6]; 40.2 µM in experiment [7]; 23.6 µM in experiment [10]. Besides, the TGI in experiment [8] turned out to be 35.4 µM; in [11] it was 28.9 µM.
`CCO[C@]12C[C@H](OC)[C@@]3(O)CC(C1[C@H]3OCc1ccccc1)C13C4C2[C@H](OC)C1[C@](COC)(CN4CC)[C@H](O)C[C@@H]3OC` (stereo partly specified): the TGI in experiment [12], in [1], in experiment [2], in experiment [3], in experiment [4] and in experiment [7] was > 100 µM throughout. In addition, the TGI in experiment [8] and in experiment [9] was > 100 µM each time.
Take `CCC(NC(C)c1ccccc1)C(O)c1ccc(OCc2ccccc2)c(OCc2ccccc2)c1` (stereo unspecified): the TGI in experiment [1] is 29.5 µM; in experiment [4] it was 38.7 µM; in [5] it was 35.1 µM; in [6] it was 35.4 µM; in experiment [7], 9.44 µM; in [10] it was 31.1 µM. Moreover, the TGI is 32.8 µM in [8] and 26.7 µM in experiment [11].
Take `C=CCOC(=O)/C(=C\c1ccc(OC)c(OC)c1)c1ccc(OC)c(OC)c1`: the TGI in [1], in experiment [4], in experiment [5], in [6], in experiment [7] and in experiment [10] was > 100 µM in each case. The TGI in [8] and in experiment [11] was > 100 µM in each case.
On to `COC(=O)c1c2n(c3ccccc13)C[C@H]1OC(C)(C)O[C@@H]21`, for which the TGI in experiment [1], in [4], in experiment [5], in [6], in [7] and in experiment [10] was > 100 µM each time. The TGI in experiment [8] and in experiment [11] was > 100 µM throughout.
For `COC(=O)c1ccc2c(O)c(O)ccc2c1`, the TGI in experiment [1] is 23 µM; in experiment [4], > 27 µM; in experiment [5] it was 29.1 µM; in experiment [6], 17.2 µM; in experiment [7], 5.43 µM; in [10] it was 36.6 µM. Besides, the results for the TGI in experiment [8] and in experiment [11] were 34.2 µM and 3.3 µM, respectively.
With `CN(C)c1ccc(C=C2C(=O)OC(C)(C)OC2=O)cc1Br`, the TGI in experiment [12], in experiment [1], in experiment [2], in experiment [3], in experiment [4] and in experiment [5] was > 100 µM throughout. For the same compound, the TGI in experiment [6], in experiment [7], in experiment [8] and in experiment [13] was > 100 µM in each case.
`CC1=C2C(=O)c3ccccc3C(=O)[C@H]2[C@H]2CCO[C@H]2O1`: the TGI in experiment [1] was determined as 40.4 µM; in experiment [4], 69.8 µM; in experiment [5], 32 µM; in experiment [6], 48.9 µM; in experiment [7], 74.5 µM; in experiment [10] it was 23.6 µM. The TGI in experiment [8] is 43.9 µM; in experiment [11], 39.8 µM.
As to `Cc1cc(=O)[nH]c(NN2C(Cl)C(=O)C2c2ccc(Cl)cc2)n1` (stereo unspecified), the TGI in experiment [12] is 44.5 µM; in experiment [1] it was 35.7 µM; in experiment [4], 5.67 µM; in experiment [6], > 100 µM; in experiment [7], 16.2 µM; in [10] it was 42.5 µM. For the same compound, the TGI in experiment [8] stood at 33.3 µM; in experiment [9], 39 µM; in [13] it was 23.2 µM; in experiment [11], 60 µM.
As to `CC12NN=NC1C(=O)NC2=O` (stereo unspecified), the TGI in experiment [12], in [1], in experiment [2], in [4], in [5] and in [6] was > 100 µM each time. For the same compound, the TGI in experiment [7], in [8] and in experiment [9] was > 100 µM throughout.
Consider `O=C(O[C@H]1[C@@H](O)[C@H](n2cnc3c(Cl)ncnc32)O[C@@H]1COC(c1ccccc1)(c1ccccc1)c1ccccc1)c1ccccc1`, for which the TGI was 30.6 µM in experiment [1]; > 100 µM in experiment [4]; 91.5 µM in [5]; 53.9 µM in experiment [6]; > 100 µM in experiment [7]; 23.4 µM in experiment [10]. The TGI is 47.3 µM in experiment [8] and > 100 µM in experiment [11].
Regarding `O=C(c1ccccc1)c1ccc(COc2ccc(C(c3c(O)c4ccccc4oc3=O)c3c(O)c4ccccc4oc3=O)cc2)cc1`, the TGI is > 100 µM in experiment [1]; 16.4 µM in [4]; 38.1 µM in [5]; 44.1 µM in [6]; 53.3 µM in [7]; 67.5 µM in [10]. The TGI in experiment [8] is 46.4 µM; in experiment [11] it was 46.8 µM.
